In brackets after ≈: the same amount, converted by molar mass. Where two headings read alike, the source gives them in different places.

These results are taken from paper PMC6943623, “Antileishmanial Compounds Isolated from Psidium Guajava L. Using a Metabolomic Approach” (Molecules, 2019).

Data set [1] can be described thus: Cytotoxicity evaluation, MTT assay. As to conditions: mouse, J774A.1 macrophage cells, mean of three independent experiments, read-out: J774A1 CC50. It counts as cell-based. How it is done: After incubation for 24 h, 100 µL of medium with various concentrations of jacoumaric acid, carasolic acid, and appropriate controls (doxorubicin and amphotericin B, purchased from Sigma-Aldrich) were added and the plates were incubated for 72 h at 37 °C and 5% CO2. Each 96-well plate was then examined under a microscope to detect possible precipitate formation before the medium was aspirated from the well. 100 µL of MTT solution (0.5mg/mL in DMEM) was then added to each well. Cells were incubated for 2 h at 37 °C and 5% CO2. Then, the MTT solution was removed and DMSO (100 µL/well) was added to dissolve the resulting formazan crystals. Plates were shaken vigorously (300 rpm) for 5 min. The absorbance was measured at 570 nm with a microplate spectrophotometer (Eon Bio Tek, Winooski, VT, USA). DMSO was used as blank. […] (San Diego, CA, USA). CC50 values represent the mean value calculated from three independent experiments.
Background: Formazan colour is commonly taken as a measure of viable cells.

The subject of data set [2] is L. infantum promastigotes. Briefly: Antileishmanial activity on promastigotes (luciferase assay). It counts as cell-based, L. infantum strain MHOM/MA/67/ITMAP-263. As to conditions: Leishmania infantum, 72 h, 24 °C, mean of three independent experiments.
In data set [3] the test system is L. infantum axenic amastigotes. Briefly: Antileishmanial activity on axenic amastigotes (luciferase assay). It counts as cell-based, L. infantum strain MHOM/MA/67/ITMAP-263. The note with it: for IC50 / IC90: Leishmania infantum; for IC50 / Axenic Amastigotes IC50: 48 h, L. infantum axenic amastigotes, 37 °C; for IC90: L. infantum amastigotes, concentration used in the ROS assay; for IC50 when associated with mannitol, compared with IC50 alone: mannitol 50 µM, axenic amastigotes.

For another data set, the system named is L. infantum amastigotes. Briefly: Intracellular ROS generation, H2DCFDA assay. It counts as cell-based. As to conditions: axenic amastigotes treated 24 h at IC50 and IC90 concentrations. How it is done: The cells were then centrifuged, washed with PBS, resuspended in PBS, and incubated for 30 min in the dark with 10 µM H2DCFDA at 37 °C. ROS were measured as an increase in fluorescence caused by the conversion of non-fluorescent dye to highly fluorescence […] (excitation wavelength 490 nm, emission wavelength 525 nm) in a fluorescence microplate reader (SAFAS Xenius XM, Monaco, France).

Another data set deals with Leishmania amazonensis. Set-up: method as in PMID 31269109. The note with it: cited from earlier work.
Data set [4] concerns five human cancer cell lines (HCT116, CCRFCEM, DU145, Huh7, and A549). Also on record: method as in PMID 28578580. As to conditions: read-out: IC50, antitumor activity; cited from earlier work.
For a further data set, the system named is Pyricularia pryzae. The note with it: cited from earlier work.
For the next data set, the system named is L. infantum amastigote. Set-up: method as in PMID 29201107. As to conditions: cited from earlier work.
For data set [5], the system named is Leishmania. Set-up: method as in PMID 15070160. The note with it: cited from earlier work.
Data set [6] concerns Leishmania. Set-up: method as in PMID 31571946. As to conditions: cited from earlier work.

As to `C[C@@H]1[C@H](O)[C@@H](C)/C=C/C=C/C=C/C=C/C=C/C=C/C=C/[C@H](O[C@@H]2O[C@H](C)[C@@H](O)[C@H](N)[C@@H]2O)C[C@@H]2O[C@](O)(C[C@@H](O)C[C@@H](O)[C@H](O)CC[C@@H](O)C[C@@H](O)CC(=O)O[C@H]1C)C[C@H](O)[C@H]2C(=O)O` [Amphotericin B, reference compound], in data set [1], the CC50 (as a rule, the concentration giving 50% cytotoxicity) at 72 h was 5.79 ± 0.65 mg/L (≈ 6.27 µM). Moreover, the 50% inhibitory concentration (IC50) – broadly, the concentration that gives 50% inhibition – in data set [2] came out at 0.09 ± 0.01 mg/L (≈ 0.0974 µM); in data set [3], 0.09 ± 0.04 mg/L (≈ 0.0974 µM).

`C[C@H]1[C@H](C)CC[C@]2(C(=O)O)CC[C@]3(C)C(=CC[C@@H]4[C@@]5(C)C[C@@H](O)[C@H](O)C(C)(C)[C@@H]5CC[C@]43C)[C@H]12` [Corosolic acid (1), Corosolic acid (2α-hydroxyursolic acid)]: the CC50 at 72 h in [1] was 5.77 ± 0.5 mg/L (≈ 12.2 µM). In data set [2], this compound had an IC50 of 18.4 ± 1.2 mg/L (≈ 39 µM). In [3], the “Axenic Amastigotes IC50” value turned out to be 1.01 ± 0.06 mg/L; inhibition was half-maximal at 1.06 mg/L (≈ 2.24 µM) (IC50); the 90% effect level (IC90) was put at 1.43 mg/L (≈ 3.03 µM); the “IC50 when associated with mannitol, compared with IC50 alone” value is “no significant differences”. Besides, in the data set on L. infantum amastigotes, the “Production of ROS (H2DCFDA fluorescence) compared to the control” value is “significantly decreased”.

`COc1cccc2c1C(=O)c1c(O)c3c(c(O)c1C2=O)C[C@@](O)(C(=O)CO)C[C@@H]3O[C@H]1C[C@H](N)[C@H](O)[C@H](C)O1` [Doxorubicin, reference compound]: the CC50 at 72 h in [1] amounted to 0.04 ± 0.004 mg/L (≈ 0.0736 µM).

`C=C1CC/C=C(\C)CC[C@@H]2[C@@H]1CC2(C)C` [E-caryophyllene]: the “IC50, antileishmanial” value with Leishmania amazonensis was 10.7 ± 0.6 mg/L (≈ 52.4 µM).

Consider `C/C1=C\CC(C)(C)/C=C/CC2(C)Oc3c(C=O)c(O)c(C=O)c(O)c3C(c3ccccc3)C2CC1` (stereo not drawn) [Guajadial B (5), Guajadial B], for which the IC50 was above 50 mg/L in data set [2], above 50 mg/L in data set [3] and 0.15 µM in data set [4].

In the case of `CC1CCC2(C(=O)O)CCC3(C)C(=CCC4C5(C)CC(O)C(OC(=O)/C=C/c6ccc(O)cc6)C(C)(C)C5CCC43C)C2C1C` (stereo not drawn) [Jacoumaric acid (2), Jacoumaric acid], the cytotoxic concentration (CC50) at 72 h in data set [1] was found to be 12.9 ± 2.5 mg/L (≈ 20.8 µM). Also, the half-inhibitory concentration (IC50) in [2] is above 50 mg/L. For the same compound, in [3], the “Axenic Amastigotes IC50” value came out at 1.32 ± 0.59 mg/L; the IC50 was determined as 1.32 ± 0.59 mg/L (≈ 2.13 µM); the IC90 (commonly the point of the concentration-response curve where the effect stands at 90%) turned out to be 1.9 mg/L (≈ 3.07 µM); the “IC50 when associated with mannitol, compared with IC50 alone” value is “no significant differences”. In addition, the “Production of ROS (H2DCFDA fluorescence) compared to the control” value with L. infantum amastigotes is given as “significantly decreased”.

Turning to `CC1(C)CCC2(C(=O)O)CCC3(C)C(=CCC4C5(C)CC(O)C(O)C(C)(C(=O)O)C5CCC43C)C2C1` (stereo not drawn) [Medicagenic acid (6), Medicagenic acid], in the data set on Pyricularia pryzae, the “minimum fungicidal concentration (MFC)” value is 30 mg/L (≈ 59.7 µM) and the “minimum inhibitory concentration (MIC)” value is 10 mg/L (≈ 19.9 µM). In addition, the IC50 in data set [2] was above 50 mg/L. The same compound came in with a concentration for half-maximal inhibition (IC50) in data set [3] above 50 mg/L.

Regarding `CC1(C)CC[C@]2(C(=O)O)CC[C@]3(C)C(=CC[C@@H]4[C@@]5(C)C[C@@H](O)[C@H](O)C(C)(C)[C@@H]5CC[C@]43C)[C@@H]2C1` [maslinic, maslinic acid], the “IC50 on L. infantum amastigote” value in the data set with L. infantum amastigote was 0.99 ± 0.09 mg/L (≈ 2.09 µM).

For the compound `CC1(C)CC[C@]2(C(=O)O)CC[C@]3(C)C(=CC[C@@H]4[C@@]5(C)CC[C@H](O)C(C)(C)[C@@H]5CC[C@]43C)[C@@H]2C1` [oleanoic acid], the “IC50 on L. infantum amastigote” value in the data set on L. infantum amastigote was 2.91 ± 0.066 mg/L (≈ 6.37 µM).

As to `C[C@H]1[C@H](C)CC[C@]2(C(=O)O)CC[C@]3(C)C(=CC[C@@H]4[C@@]5(C)CC[C@H](O)C(C)(C)[C@@H]5CC[C@]43C)[C@H]12` [ursolic acid], the “IC50, antileishmanial” value in the data set on Leishmania [5] is 27 mg/L (≈ 59.1 µM).

As to spergulin-A, in the data set with Leishmania [6], the “IC50, antileishmanial” value was 6.22 mg/L.
